Measured values as given in patent publication US20120101099A1, “HISTONE DEACETYLASE INHIBITORS” (ANTHEM BIOSCIENCES PRIVATE LIMITED, priority 2009, published 2012).
Values after ≈ are worked out from the molar mass of the structure shown. Where a name gives a salt, the structure may show the parent alone. Read-outs that look alike come from different tables or passages of the source.

Assays:
NCI-H460 = test: Cell proliferation assay (MTT); format: cell-based; conditions: Homo sapiens
Summary of the method: (§1)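 MTT read-out, A570 after 3 h dye incubation and DMSO solubilisation. Percentage growth vs T0 plate measured at time of dosing; GI50 interpolated from growth curves.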

PA-1 = test: Cell proliferation assay (MTT); format: cell-based; conditions: Homo sapiens
Summary of the method: as §1

[1] = Absolute aqueous solubility; format: physicochemical; conditions: 25 °C, thermodynamic from solid; water, about 6 hrs equilibration, 25 deg centigrade, UV
Method: The objective of the study was to determine the absolute solubility of the powder form of the test compounds in water. Brief procedure: The powder form of test compounds was allowed to saturate in an aqueous medium and is equilibrated for about 6 hrs until the compound precipitates. The precipitated solution was centrifuged at 15,000 rpm for 10 mins at 25 deg centigrade and the supernatant solution was analyzed by UV spectrometry. If required the supernatant was diluted further until the absorbance by UV spectroscopy was within the limits of the standard curve obtained with the test compound. λmax was selected from UV spectra having maximum absorbance for that compound.

CYP 3A4 = biological target: T1, CYP 3A4 (Homo sapiens, UniProt P08684); test: Cytochrome-P450 isoforms liability determination; format: in vitro ADME; conditions: fluorescence based kit
T1 construct: purchased
T1 sequence (P08684 whole entry, canonical isoform): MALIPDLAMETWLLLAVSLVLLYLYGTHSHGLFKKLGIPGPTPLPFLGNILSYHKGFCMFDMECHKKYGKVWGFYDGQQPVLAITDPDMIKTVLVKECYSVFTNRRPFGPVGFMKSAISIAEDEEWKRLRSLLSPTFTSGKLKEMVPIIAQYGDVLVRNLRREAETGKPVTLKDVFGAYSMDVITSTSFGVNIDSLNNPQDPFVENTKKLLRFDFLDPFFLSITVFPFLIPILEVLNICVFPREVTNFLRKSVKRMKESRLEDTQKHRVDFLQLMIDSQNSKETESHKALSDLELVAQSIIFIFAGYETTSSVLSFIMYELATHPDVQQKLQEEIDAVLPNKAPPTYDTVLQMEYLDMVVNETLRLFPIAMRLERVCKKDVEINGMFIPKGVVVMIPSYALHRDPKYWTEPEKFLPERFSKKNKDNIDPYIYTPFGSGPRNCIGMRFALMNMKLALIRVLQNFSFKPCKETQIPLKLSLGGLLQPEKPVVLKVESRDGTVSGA
Method: To determine the test compound liability towards Human cytochrome 450 (hCYP450) Isoforms fluorescence based screening kits.
Brief procedure: 2× test compounds were prepared by dilution with deionized water. A serial dilution of the test compound was done. 2× solution of known inhibitor were used as a positive control. 40 μL of the 2× solution that is prepared was added to the desired wells. Two replicates were included for every compound. 50 μL of the Master premix (premix of CYP450 Baclosomes, reagents and regenerating system) was dispensed into each well. The plate was incubated for 20 min at room temperature to allow the compounds to interact with the CYP450enzymes. The reaction was started by adding 10 μL of the substrate and NADP^+ mixture. The plate was incubated for the desired amount of time, and then 10 μL of stop reagent was added to each well to quench the reaction. The fluorescence was measured in the fluorescent plate reader at excitation and emission wavelengths as recommended, depending on the substrate used.

A431 = test: Anti-proliferative activity (GI50); format: cell-based; conditions: Homo sapiens, A-431; Table 9; Skin; read-out: Anti-proliferative activity (GI50) A431
Method: (§2) Cells were seeded in a 96-well cell culture plates at a concentration of 10,000 cells per well and incubated at 37° C. in CO2 incubator.
(§3) Twenty-four hours later cells were treated with different concentrations (100, 10, 1, 0.1, and 0.01 μM) of compound dissolved in DMSO and incubated for 48 hours. For To measurement, 24 hours after seeding the cells, 20 μL of 3-(4.5-dimethyl-2- thiazolyl)-2,5-diphenyl-2H-tetrazolium (MTT) solution per well was added to the T0 plate and incubated for 3 hours at 37° C. in a CO2 incubator.
(§4) The plate containing cells and test compounds was treated similarly after 48 hours of incubation. After 3 hours of MTT addition, well contents were aspirated carefully followed by addition of 100 μL DMSO per well. Plates were agitated to ensure dissolution of the formazan crystals in DMSO and absorbance was read at 570 nm (A570). […] From the percentage growths a dose response curve was generated and GI50 values were interpolated from the growth curves.

ACHN = test: Anti-proliferative activity (GI50); format: cell-based; conditions: Homo sapiens, Table 9, Renal, read-out: Anti-proliferative activity (GI50) ACHN
Method: as §2, §3, §4

Calu-6 = test: Anti-proliferative activity (GI50); format: cell-based; conditions: Homo sapiens, Calu-6; Table 9; Lung; read-out: Anti-proliferative activity (GI50) Calu-6
Method: as §2, §3, §4

Colo-205 = test: Anti-proliferative activity (GI50); format: cell-based; conditions: Homo sapiens, COLO 205; Table 9; Colon; read-out: Anti-proliferative activity (GI50) Colo-205
Method: as §2, §3, §4

DU-145 = test: Anti-proliferative activity (GI50); format: cell-based; conditions: Homo sapiens, DU-145; Table 9; Prostate; read-out: Anti-proliferative activity (GI50) DU-145
Method: as §2, §3, §4

HCT-116 = test: Anti-proliferative activity (GI50); format: cell-based; conditions: Homo sapiens, HCT-116; Table 9; Colon; read-out: Anti-proliferative activity (GI50) HCT-116
Method: as §2, §3, §4

HCT-15 = test: Anti-proliferative activity (GI50); format: cell-based; conditions: Homo sapiens, HCT-15; Table 9; Colon; read-out: Anti-proliferative activity (GI50) HCT-15
Method: as §2, §3, §4

Hela-S3 = test: Anti-proliferative activity (GI50); format: cell-based; conditions: Homo sapiens, HeLa S3; Table 9; Cervix; read-out: Anti-proliferative activity (GI50) Hela-S3
Method: as §2, §3, §4

IMR-32 = test: Anti-proliferative activity (GI50); format: cell-based; conditions: Homo sapiens, IMR-32; Table 9; Brain; read-out: Anti-proliferative activity (GI50) IMR-32
Method: as §2, §3, §4

K562 = test: Anti-proliferative activity (GI50); format: cell-based; conditions: Homo sapiens, K562; Table 9; Leukemia; read-out: Anti-proliferative activity (GI50) K562
Method: as §2, §3, §4

KHOS = test: Anti-proliferative activity (GI50); format: cell-based; conditions: Table 9; Bone; read-out: Anti-proliferative activity (GI50) KHOS
Method: as §2, §3, §4

RPMI-8226 = test: Anti-proliferative activity (GI50); format: cell-based; conditions: Homo sapiens, RPMI-8226; Table 9; Leukemia; read-out: Anti-proliferative activity (GI50) RPMI-8226
Method: as §2, §3, §4

SH-SY-5Y = test: Anti-proliferative activity (GI50); format: cell-based; conditions: Homo sapiens, SH-SY5Y; Table 9; Brain; read-out: Anti-proliferative activity (GI50) SH-SY-5Y
Method: as §2, §3, §4

U-87-MG = test: Anti-proliferative activity (GI50); format: cell-based; conditions: Homo sapiens, Table 9, Brain, read-out: Anti-proliferative activity (GI50) U-87-MG
Method: as §2, §3, §4

cleaved PARP = test: PARP cleavage in HeLa cells (Western Blot); format: cell-based; set-up: key: represented by the symbol ‘+’ which indicates the relative extent of modulation; ++: represented by the symbol ‘+’ which indicates the relative extent of modulation; +++: represented by the symbol ‘+’ which indicates the relative extent of modulation; ++++: represented by the symbol ‘+’ which indicates the relative extent of modulation; conditions: 24 hrs, 0.03-3.0 μM
Method: HeLa Cells were seeded (0.3×10^6 Cells/well) into a 6 well plate and after 24 hrs compounds were added in 5 different concentrations (0.03, 0.1, 0.3, 1.0, 3.0 μM). After 24 hrs cells were lysed and cellular extract was used for assessing apoptotic activity by detection of cleaved PARP by Western Blot using monoclonal Anti-poly(ADP-Ribose) polymerase antibody, Clone C-2-10(Sigma).

[2] = Table 1, MTT, 48 hours, read-out: Cell growth inhibition (GI50 in μM) NCI H460
[3] = Table 9, Lung, read-out: Anti-proliferative activity (GI50) NCI-H460
[4] = Table 1, MTT, 48 hours, read-out: Cell growth inhibition (GI50 in μM) PA-1
[5] = Table 9, Ovary, read-out: Anti-proliferative activity (GI50) PA-1

Row | GI50 (NCI-H460; [3]) [µM] | solubility [1] [µg/mL] | IC50 (CYP 3A4) [µM] | GI50 (A431) [nM] | GI50 (ACHN) [nM] | GI50 (Calu-6) [nM] | GI50 (Colo-205) [nM] | GI50 (DU-145) [nM] | GI50 (HCT-116) [nM] | GI50 (HCT-15) [nM] | GI50 (Hela-S3) [nM] | GI50 (K562) [nM] | GI50 (RPMI-8226) [nM] | GI50 (SH-SY-5Y) [nM] | GI50 (U-87-MG) [nM] | Compound | GI50 (PA-1; [4]) [µM] | GI50 (PA-1; [5]) [µM] | GI50 (IMR-32) [nM] | GI50 (KHOS) [nM] | PARP cleavage (cleaved PARP) | further results
1 | 0.3 ± 0.04 | 9400 (≈ 23.3 mM) | 53.3 | 280 ± 50 | 90 ± 20 | 410 ± 160 | 310 ± 60 | 79 ± 40 | 100 ± 110 | 9800 ± 4300 | 230 ± 120 | 190 ± 50 | 150 ± 50 | 340 ± 33 | 760 ± 660 | O=C(/C=C/c1ccc(Cn2cc(-c3ccc(CN4CCCC4)cc3)nn2)cc1)NO [Example 16, N-Hydroxy-3-{4-[4-(4-pyrrolidin-1-ylmethyl-phenyl)-[1,2,3]triazol-1-ylmethyl]-phenyl}-acrylamide] | 0.09 ± 0.04 | 0.08 ± 0.04 | 250 ± 70 | 11700 ± 1100 | ++++ | GI50 (NCI-H460; [2]): 0.4 µM
2 | 0.45 ± 0.28 | 2900 | 12.6 | 200 ± 30 | 200 ± 80 | 600 ± 180 | 200 ± 30 | 100 ± 30 | 200 ± 50 | 1700 ± 890 | 200 ± 20 | 200 ± 80 | 200 ± 250 | 200 ± 30 | 1100 ± 730 | O=C(/C=C/c1cccc(Cn2cc(-c3ccc(CN4CCOCC4)cc3)nn2)c1)NO [Example 25, N-Hydroxy-3-{3-[4-(4-morpholin-4-ylmethyl-phenyl)-[1,2,3]triazol-1-ylmethyl]-phenyl}-acrylamide hydrochloride] | 0.04 ± 0.01 | 0.04 ± 0.01 | 200 ± 20 | 4600 ± 550 | +++ | GI50 (NCI-H460; [2]): 0.8 µM
3 | 1.9 ± 0.74 | 11600 (≈ 30.7 mM) | 28.5 | 400 ± 80 | 100 ± 40 | 400 ± 120 | 400 ± 40 | 100 ± 40 | 200 ± 40 | 1800 ± 1140 | 200 ± 80 | 200 ± 40 | 300 ± 160 | 100 | 1000 ± 330 | CN(C)Cc1ccc(-c2cn(Cc3ccc(/C=C/C(=O)NO)cc3)nn2)cc1 [Example 21] | 0.11 ± 0.04 | 0.1 ± 0.01 | 200 ± 40 | 10300 ± 3260 | ++++ | 
